Test results: ChEMBL document CHEMBL5291721, “A preclinical secondary pharmacology resource illuminates target-adverse drug reaction associations of marketed drugs” (Nat Commun, 2023)

Legend:
Bile salt export pump = Bile salt export pump (Homo sapiens, UniProt O95342); assay type: functional
Adenosine receptor A1 = target: T1, Adenosine receptor A1 (Homo sapiens, UniProt P30542)
T1 sequence (P30542 whole entry): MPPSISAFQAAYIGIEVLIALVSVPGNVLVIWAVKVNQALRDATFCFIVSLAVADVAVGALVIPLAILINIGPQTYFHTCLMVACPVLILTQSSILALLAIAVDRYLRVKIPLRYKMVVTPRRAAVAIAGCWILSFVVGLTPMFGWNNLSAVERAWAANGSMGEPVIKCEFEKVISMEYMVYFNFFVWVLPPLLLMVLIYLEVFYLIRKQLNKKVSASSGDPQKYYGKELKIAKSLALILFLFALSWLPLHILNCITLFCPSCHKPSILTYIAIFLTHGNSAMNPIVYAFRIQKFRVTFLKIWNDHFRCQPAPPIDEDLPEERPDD

[1] = target: T2, Muscarinic acetylcholine receptor M2 (Homo sapiens, UniProt P08172); assay type: functional, cell-based
T2 sequence (P08172 whole entry): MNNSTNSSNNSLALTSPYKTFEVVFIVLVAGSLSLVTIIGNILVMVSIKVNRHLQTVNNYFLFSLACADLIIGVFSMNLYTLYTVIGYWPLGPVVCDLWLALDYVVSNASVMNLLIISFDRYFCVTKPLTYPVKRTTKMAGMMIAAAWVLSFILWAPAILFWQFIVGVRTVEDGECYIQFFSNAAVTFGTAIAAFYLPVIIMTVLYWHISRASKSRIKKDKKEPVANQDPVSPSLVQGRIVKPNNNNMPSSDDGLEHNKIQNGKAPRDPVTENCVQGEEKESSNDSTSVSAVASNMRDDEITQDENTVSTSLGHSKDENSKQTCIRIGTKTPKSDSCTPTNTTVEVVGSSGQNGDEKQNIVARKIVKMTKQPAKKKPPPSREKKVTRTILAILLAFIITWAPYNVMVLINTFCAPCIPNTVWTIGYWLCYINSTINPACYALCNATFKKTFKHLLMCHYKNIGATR

[2] = target: 5-hydroxytryptamine receptor 2B (Homo sapiens, UniProt P41595); assay type: functional, cell-based
[3] = target: T3, Prostaglandin G/H synthase 1 (Rattus norvegicus, UniProt Q63921); assay type: functional
T3 sequence (Q63921 whole entry): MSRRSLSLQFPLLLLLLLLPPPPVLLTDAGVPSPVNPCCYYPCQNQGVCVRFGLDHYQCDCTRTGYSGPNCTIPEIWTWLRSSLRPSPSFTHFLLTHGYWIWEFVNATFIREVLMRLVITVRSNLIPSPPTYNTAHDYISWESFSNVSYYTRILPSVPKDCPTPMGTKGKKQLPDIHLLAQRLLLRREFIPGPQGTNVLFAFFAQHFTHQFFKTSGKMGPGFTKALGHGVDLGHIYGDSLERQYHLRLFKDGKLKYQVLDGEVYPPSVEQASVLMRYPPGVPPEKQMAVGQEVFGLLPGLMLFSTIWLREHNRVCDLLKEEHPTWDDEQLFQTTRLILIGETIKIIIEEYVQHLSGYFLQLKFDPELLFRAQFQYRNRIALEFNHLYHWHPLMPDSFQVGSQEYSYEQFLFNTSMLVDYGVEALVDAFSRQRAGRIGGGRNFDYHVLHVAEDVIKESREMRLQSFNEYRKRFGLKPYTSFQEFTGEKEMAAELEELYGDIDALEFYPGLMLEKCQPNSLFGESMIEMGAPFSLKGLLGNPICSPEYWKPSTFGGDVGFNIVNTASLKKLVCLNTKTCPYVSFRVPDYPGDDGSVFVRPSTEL

Histamine H3 receptor = Histamine H3 receptor (Homo sapiens, UniProt Q9Y5N1)
[4] = target: T4, Muscarinic acetylcholine receptor M1 (Homo sapiens, UniProt P11229); assay type: functional, cell-based
T4 sequence (P11229 whole entry): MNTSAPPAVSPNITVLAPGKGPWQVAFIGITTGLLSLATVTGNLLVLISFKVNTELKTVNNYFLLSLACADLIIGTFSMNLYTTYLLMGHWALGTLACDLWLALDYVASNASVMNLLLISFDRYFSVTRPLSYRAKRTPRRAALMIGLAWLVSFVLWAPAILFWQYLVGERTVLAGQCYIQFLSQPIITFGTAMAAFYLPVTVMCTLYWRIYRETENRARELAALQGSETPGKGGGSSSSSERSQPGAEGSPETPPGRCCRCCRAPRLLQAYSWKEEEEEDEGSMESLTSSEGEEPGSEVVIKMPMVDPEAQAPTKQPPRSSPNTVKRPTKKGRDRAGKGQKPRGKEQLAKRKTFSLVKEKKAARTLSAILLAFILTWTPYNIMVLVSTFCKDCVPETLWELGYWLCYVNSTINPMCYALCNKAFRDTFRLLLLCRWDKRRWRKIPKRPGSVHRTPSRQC

Thromboxane A2 receptor = target: T5, Thromboxane A2 receptor (Homo sapiens, UniProt P21731); assay type: functional, cell-based
T5 sequence (P21731 whole entry): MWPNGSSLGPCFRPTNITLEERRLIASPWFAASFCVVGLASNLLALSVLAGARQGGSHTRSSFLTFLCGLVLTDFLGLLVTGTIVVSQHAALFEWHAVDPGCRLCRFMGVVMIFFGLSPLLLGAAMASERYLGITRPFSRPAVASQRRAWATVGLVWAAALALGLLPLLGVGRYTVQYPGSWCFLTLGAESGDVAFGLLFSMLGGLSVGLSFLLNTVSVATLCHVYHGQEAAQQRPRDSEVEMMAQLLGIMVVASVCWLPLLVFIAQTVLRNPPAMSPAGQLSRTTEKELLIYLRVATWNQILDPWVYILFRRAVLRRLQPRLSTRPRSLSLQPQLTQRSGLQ

Vasopressin V2 receptor = Vasopressin V2 receptor (Homo sapiens, UniProt P30518)
[5] = target: Voltage-dependent L-type calcium channel subunit alpha-1C (Rattus norvegicus, UniProt P22002); assay type: functional
Also: assay procedure not described here.

Chain of Histamine H3 receptor (Q9Y5N1 whole entry): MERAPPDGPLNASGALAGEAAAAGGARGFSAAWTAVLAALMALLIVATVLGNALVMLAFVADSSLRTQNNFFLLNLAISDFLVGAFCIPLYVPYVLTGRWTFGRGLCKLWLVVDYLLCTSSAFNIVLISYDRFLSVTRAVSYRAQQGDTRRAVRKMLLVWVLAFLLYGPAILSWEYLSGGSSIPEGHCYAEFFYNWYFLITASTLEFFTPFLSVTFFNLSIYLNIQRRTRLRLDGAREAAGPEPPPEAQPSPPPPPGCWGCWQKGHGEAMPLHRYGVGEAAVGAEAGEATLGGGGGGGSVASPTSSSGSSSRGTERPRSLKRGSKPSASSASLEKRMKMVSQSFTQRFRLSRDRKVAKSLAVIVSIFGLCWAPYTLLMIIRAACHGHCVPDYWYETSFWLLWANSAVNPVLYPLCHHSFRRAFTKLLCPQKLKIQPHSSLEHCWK
Chain of Bile salt export pump (O95342 whole entry): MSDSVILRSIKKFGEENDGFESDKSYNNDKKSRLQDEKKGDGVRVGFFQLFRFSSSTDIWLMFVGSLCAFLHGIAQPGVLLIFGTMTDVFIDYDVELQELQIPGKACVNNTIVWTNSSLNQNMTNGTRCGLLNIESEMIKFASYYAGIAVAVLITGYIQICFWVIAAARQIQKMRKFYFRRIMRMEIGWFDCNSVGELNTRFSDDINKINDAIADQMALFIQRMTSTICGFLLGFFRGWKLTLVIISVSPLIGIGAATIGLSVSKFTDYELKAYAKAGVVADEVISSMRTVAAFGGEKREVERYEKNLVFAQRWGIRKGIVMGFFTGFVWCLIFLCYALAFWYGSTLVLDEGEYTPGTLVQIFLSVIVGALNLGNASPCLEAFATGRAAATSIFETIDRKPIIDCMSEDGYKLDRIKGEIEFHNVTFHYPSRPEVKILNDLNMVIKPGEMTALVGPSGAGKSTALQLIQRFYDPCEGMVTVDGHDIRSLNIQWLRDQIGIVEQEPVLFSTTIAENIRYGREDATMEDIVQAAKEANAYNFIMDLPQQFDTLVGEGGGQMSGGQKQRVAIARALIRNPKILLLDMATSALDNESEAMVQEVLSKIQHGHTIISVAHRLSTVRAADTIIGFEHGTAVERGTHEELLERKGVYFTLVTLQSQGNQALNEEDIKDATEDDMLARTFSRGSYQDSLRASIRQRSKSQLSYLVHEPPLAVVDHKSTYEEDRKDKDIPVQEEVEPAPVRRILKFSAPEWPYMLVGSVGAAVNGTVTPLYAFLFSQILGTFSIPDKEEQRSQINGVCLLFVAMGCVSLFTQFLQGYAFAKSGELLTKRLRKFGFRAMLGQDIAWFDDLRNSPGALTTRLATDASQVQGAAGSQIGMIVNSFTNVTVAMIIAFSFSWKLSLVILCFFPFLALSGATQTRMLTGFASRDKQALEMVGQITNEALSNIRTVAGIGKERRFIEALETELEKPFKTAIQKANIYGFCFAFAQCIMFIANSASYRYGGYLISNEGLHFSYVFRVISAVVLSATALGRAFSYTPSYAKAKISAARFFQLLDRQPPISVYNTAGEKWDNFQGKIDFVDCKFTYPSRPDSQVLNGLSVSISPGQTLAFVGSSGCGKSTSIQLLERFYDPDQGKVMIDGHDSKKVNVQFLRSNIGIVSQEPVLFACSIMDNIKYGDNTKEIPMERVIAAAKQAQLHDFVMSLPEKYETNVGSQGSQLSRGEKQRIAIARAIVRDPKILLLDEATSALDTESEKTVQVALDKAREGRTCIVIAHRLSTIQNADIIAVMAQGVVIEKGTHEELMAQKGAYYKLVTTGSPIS
Chain of Vasopressin V2 receptor (P30518 whole entry): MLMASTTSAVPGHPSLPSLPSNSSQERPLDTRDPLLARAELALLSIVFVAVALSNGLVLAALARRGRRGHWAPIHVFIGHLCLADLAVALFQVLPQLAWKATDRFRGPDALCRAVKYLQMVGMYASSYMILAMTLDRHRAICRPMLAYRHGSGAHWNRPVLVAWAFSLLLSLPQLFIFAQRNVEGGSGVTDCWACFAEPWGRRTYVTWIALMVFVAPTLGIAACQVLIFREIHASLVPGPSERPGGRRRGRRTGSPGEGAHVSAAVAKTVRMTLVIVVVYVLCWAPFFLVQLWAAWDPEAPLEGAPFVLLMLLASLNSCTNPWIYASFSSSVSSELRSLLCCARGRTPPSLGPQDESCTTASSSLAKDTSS
Chain of 5-hydroxytryptamine receptor 2B (P41595 whole entry): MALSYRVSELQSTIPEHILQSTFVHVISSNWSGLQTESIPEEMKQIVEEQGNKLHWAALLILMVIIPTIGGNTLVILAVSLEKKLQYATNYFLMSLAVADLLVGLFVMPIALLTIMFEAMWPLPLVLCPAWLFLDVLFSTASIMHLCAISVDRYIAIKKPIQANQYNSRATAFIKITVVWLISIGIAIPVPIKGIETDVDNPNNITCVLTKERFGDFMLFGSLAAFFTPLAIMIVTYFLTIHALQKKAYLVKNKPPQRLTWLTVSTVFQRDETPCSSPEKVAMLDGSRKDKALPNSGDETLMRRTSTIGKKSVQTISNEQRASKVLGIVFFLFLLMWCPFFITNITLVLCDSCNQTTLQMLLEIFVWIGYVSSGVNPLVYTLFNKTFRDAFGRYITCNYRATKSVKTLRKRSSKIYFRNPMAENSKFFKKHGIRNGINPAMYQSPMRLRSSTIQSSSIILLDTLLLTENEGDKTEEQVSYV
Chain of Voltage-dependent L-type calcium channel subunit alpha-1C (P22002 whole entry): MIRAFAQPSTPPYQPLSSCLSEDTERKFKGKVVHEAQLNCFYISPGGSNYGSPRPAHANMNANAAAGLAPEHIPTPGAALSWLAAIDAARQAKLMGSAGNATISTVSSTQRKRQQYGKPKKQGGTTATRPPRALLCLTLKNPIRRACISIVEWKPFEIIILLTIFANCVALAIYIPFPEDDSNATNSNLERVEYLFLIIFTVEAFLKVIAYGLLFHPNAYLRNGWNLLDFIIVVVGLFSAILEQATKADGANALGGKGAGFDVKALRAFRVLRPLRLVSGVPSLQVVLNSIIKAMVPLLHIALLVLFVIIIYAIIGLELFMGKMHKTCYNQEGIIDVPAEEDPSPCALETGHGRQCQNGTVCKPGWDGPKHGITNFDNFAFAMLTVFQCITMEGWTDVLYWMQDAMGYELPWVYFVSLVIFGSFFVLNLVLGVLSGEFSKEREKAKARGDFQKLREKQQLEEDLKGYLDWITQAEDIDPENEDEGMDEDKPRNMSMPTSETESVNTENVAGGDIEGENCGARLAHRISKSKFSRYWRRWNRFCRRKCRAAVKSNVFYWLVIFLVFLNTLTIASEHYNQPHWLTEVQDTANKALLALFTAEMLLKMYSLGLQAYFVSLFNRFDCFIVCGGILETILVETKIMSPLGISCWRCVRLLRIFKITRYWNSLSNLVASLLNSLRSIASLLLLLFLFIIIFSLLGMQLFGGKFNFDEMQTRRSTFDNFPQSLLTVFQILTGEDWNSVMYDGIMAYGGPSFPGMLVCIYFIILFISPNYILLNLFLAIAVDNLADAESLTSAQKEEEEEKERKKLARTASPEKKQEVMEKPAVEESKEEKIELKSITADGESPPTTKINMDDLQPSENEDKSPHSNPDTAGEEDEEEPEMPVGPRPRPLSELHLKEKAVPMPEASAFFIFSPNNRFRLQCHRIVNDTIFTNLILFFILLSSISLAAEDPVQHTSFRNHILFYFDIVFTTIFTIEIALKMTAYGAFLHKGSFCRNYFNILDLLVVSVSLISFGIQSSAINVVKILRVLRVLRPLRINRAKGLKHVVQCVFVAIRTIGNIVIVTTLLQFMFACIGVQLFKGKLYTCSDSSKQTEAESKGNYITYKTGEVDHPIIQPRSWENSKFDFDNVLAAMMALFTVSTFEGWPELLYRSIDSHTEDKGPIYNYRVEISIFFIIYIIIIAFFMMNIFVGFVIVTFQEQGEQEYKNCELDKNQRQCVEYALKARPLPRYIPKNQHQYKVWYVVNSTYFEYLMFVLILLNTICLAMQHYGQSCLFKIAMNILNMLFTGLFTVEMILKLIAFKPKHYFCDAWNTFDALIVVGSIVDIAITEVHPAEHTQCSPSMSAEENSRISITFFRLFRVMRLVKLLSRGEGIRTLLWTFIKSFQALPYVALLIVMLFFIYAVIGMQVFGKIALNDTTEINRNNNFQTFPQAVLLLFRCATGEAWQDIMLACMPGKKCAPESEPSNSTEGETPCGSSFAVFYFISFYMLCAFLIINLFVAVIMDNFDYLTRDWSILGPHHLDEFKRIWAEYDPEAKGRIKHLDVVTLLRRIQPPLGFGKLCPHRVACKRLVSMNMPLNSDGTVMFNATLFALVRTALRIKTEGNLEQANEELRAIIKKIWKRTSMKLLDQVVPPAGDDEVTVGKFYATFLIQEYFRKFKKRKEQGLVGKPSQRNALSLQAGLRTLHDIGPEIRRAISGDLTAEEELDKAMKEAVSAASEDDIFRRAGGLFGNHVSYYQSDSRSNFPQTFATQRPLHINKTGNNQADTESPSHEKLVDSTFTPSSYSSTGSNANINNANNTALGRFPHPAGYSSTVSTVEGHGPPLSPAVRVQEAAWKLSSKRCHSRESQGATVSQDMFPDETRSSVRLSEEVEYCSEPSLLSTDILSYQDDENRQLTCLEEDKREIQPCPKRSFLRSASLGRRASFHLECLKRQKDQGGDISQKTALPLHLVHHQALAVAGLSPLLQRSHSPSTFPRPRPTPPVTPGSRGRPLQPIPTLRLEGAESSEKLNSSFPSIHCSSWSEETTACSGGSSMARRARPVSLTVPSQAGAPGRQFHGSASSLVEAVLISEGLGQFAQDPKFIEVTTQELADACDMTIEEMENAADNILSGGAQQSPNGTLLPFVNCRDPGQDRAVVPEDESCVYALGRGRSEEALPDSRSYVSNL

SMILES	AC50 (Bile salt export pump)	AC50 (Adenosine receptor A1)	AC50 [1]	AC50 [2]	AC50 [3]	AC50 (Histamine H3 receptor)	AC50 [4]	AC50 (Thromboxane A2 receptor)	AC50 (Vasopressin V2 receptor)	AC50 [5]
CCOCC(O)COc1ccc(NC(=O)CC[S+](C)C)cc1 (configuration not stated)	> 300 µM	> 30 µM	> 30 µM	> 30 µM	> 30 µM	> 30 µM	–	–	–	–
CCC[C@@]1(CCc2ccccc2)CC(O)=C([C@H](CC)c2cccc(NS(=O)(=O)c3ccc(C(F)(F)F)cn3)c2)C(=O)O1	3.2 µM	> 30 µM	6.3 µM	7.5 µM	5.8 µM	> 30 µM	–	–	–	–
CC#CC(=O)N1CCC[C@H]1c1nc(-c2ccc(C(=O)Nc3ccccn3)cc2)c2c(N)nccn12 [ACALABRUTINIB]	–	–	–	–	> 30 µM	–	> 30 µM	> 30 µM	–	–
CN1CC2c3ccccc3Oc3ccc(Cl)cc3C2C1 (configuration not stated) [ASENAPINE]	270 µM	> 30 µM	> 30 µM	0.0013 µM	> 30 µM	> 30 µM	–	–	–	–
CC(C)NCC(O)COc1ccc(CC(N)=O)cc1 (configuration not stated) [ATENOLOL]	> 300 µM	> 30 µM	–	–	> 30 µM	> 30 µM	–	–	> 30 µM	–
Cn1cnc2c(F)c(Nc3ccc(Br)cc3F)c(C(=O)NOCCO)cc21 [BINIMETINIB]	87 µM	> 30 µM	> 30 µM	> 30 µM	> 30 µM	> 30 µM	–	–	–	–
NC(=O)C1(N2CCCCC2)CCN(CCCN2c3ccccc3CCc3ccccc32)CC1 [CARPIPRAMINE]	–	–	–	–	–	–	–	24.6 µM	–	–
O=C(Cc1cccs1)N[C@@H]1C(=O)N2C(C(=O)[O-])=C(C[n+]3ccccc3)CS[C@H]12 [CEPHALORIDINE]	–	–	> 30 µM	> 30 µM	–	–	–	> 30 µM	–	–
C[C@H](CCC(=O)O)[C@H]1CC[C@H]2[C@@H]3[C@H](O)C[C@@H]4C[C@H](O)CC[C@]4(C)[C@H]3CC[C@]12C [CHENODIOL]	13 µM	> 30 µM	27 µM	> 30 µM	> 30 µM	> 30 µM	–	–	–	–
O=C(O)[C@H]1/C(=C/CO)O[C@@H]2CC(=O)N21 [CLAVULANIC ACID]	> 300 µM	> 30 µM	> 30 µM	> 30 µM	> 30 µM	> 30 µM	–	–	–	–
CCCCCCCCCCCCCCCC(=O)OC[C@H](COP(=O)([O-])OCC[N+](C)(C)C)OC(=O)CCCCCCCCCCCCCCC [COLFOSCERIL PALMITATE]	–	–	–	–	–	–	> 30 µM	> 30 µM	–	–
CC(C)Nc1cccnc1N1CCN(C(=O)c2cc3cc(NS(C)(=O)=O)ccc3[nH]2)CC1 [DELAVIRDINE]	–	–	–	–	–	–	16.4 µM	> 30 µM	–	–
C[C@@H](CN1CC(=O)NC(=O)C1)N1CC(=O)NC(=O)C1 [DEXRAZOXANE]	–	–	–	–	–	–	> 30 µM	> 30 µM	–	–
C[C@]12CC[C@@H]3c4ccc(OC(=O)N(CCCl)CCCl)cc4CC[C@H]3[C@@H]1CC[C@@H]2OP(=O)(O)O [ESTRAMUSTINE PHOSPHATE]	–	–	–	–	–	–	> 30 µM	> 30 µM	–	–
O=c1[nH]cc(F)c(=O)[nH]1 [FLUOROURACIL]	–	> 30 µM	–	–	> 30 µM	> 30 µM	–	> 30 µM	> 30 µM	–
O=C(O)[C@H](O)[C@@H](O)[C@H](O)[C@H](O)CO [GLUCONIC ACID]	–	–	–	–	–	–	> 30 µM	> 30 µM	–	–
N=C(N)NCC1COc2ccccc2O1 (configuration not stated) [GUANOXAN]	–	–	–	–	–	–	> 30 µM	> 30 µM	–	–

SMILES	AC50 (Bile salt export pump)	AC50 (Adenosine receptor A1)	AC50 [1]	AC50 [2]	AC50 [3]	AC50 (Histamine H3 receptor)	AC50 [4]	AC50 (Thromboxane A2 receptor)	AC50 (Vasopressin V2 receptor)	AC50 [5]
C[C@@H](O)[C@H]1C(=O)N2C(C(=O)O)=C(SCCN=CN)C[C@H]12 [IMIPENEM ANHYDROUS]	> 300 µM	> 300 µM	> 300 µM	> 300 µM	> 300 µM	180 µM	–	–	–	–
CNC1(c2ccccc2Cl)CCCCC1=O (configuration not stated) [KETAMINE]	–	–	–	–	–	–	–	> 30 µM	–	–
CO[C@@]1(NC(=O)C(C(=O)O)c2ccc(O)cc2)C(=O)N2C(C(=O)O)=C(CSc3nnnn3C)CO[C@@H]21 (some centres not stated) [MOXALACTAM]	–	–	–	–	–	–	> 30 µM	> 30 µM	–	–
CO[C@@H]1[C@@H](OC(N)=O)[C@@H](O)[C@H](Oc2ccc3c(O)c(NC(=O)c4ccc(O)c(CC=C(C)C)c4)c(=O)oc3c2C)OC1(C)C [NOVOBIOCIN]	220 µM	> 30 µM	> 30 µM	> 30 µM	> 30 µM	> 30 µM	–	–	–	–
C#CCN(C)Cc1ccccc1 [PARGYLINE]	–	–	> 30 µM	> 30 µM	–	–	–	> 30 µM	–	–
NC(=O)C1(N2CCCCC2)CCN(CCCC(=O)c2ccc(F)cc2)CC1 [PIPAMPERONE]	–	–	–	–	–	–	> 30 µM	> 30 µM	–	–
COc1cccc2c1C(=O)c1c(O)c3c(c(O)c1C2=O)C[C@@](O)(C(=O)CO)C[C@@H]3O[C@H]1C[C@H](N)[C@H](O[C@@H]2CCCCO2)[C@H](C)O1 [PIRARUBICIN]	–	–	–	–	–	–	> 10 µM	> 1 µM	–	–
CC(C)(Oc1ccc(Cl)cc1)C(=O)NC(=O)NCN1CCOCC1 [PLAFIBRIDE]	–	–	–	–	–	–	> 30 µM	> 30 µM	–	–
CC(C)NC[C@H](O)COc1ccc(O)cc1 [PRENALTEROL]	–	–	–	–	–	–	> 30 µM	> 30 µM	–	–
COc1cc2c(cc1OC)C1CC(=O)C(CC(C)C)CN1CC2 (configuration not stated) [TETRABENAZINE]	74 µM	> 30 µM	> 30 µM	8.6 µM	> 30 µM	> 30 µM	–	–	–	–
CC(C)(CO)c1cc2cc(NC(=O)C3(c4ccc5c(c4)OC(F)(F)O5)CC3)c(F)cc2n1C[C@@H](O)CO [TEZACAFTOR]	> 10 µM	> 30 µM	> 30 µM	> 10 µM	> 30 µM	> 30 µM	–	–	–	–
CN1CCC(N(Cc2cccs2)c2ccccc2)CC1 [THENALIDINE]	–	–	–	–	–	–	0.762 µM	> 30 µM	–	–
CN(C)CCN(Cc1ccccc1)c1ccccn1 [TRIPELENNAMINE]	–	> 10 µM	> 10 µM	> 10 µM	> 10 µM	–	> 30 µM	> 30 µM	> 10 µM	> 10 µM
c1cnc2cc3c(cc2n1)[C@@H]1CNC[C@H]3C1 [VARENICLINE]	> 300 µM	> 30 µM	> 30 µM	> 30 µM	> 30 µM	> 30 µM	–	–	–	–
Nc1c2c(nc3ccccc13)CCCC2O (configuration not stated) [VELNACRINE]	> 300 µM	> 30 µM	> 30 µM	> 30 µM	> 30 µM	> 30 µM	–	–	–	–
Cc1cccc(C)c1NC(=O)c1cc(S(N)(=O)=O)c(Cl)cc1O [XIPAMIDE]	–	–	–	–	–	–	> 30 µM	> 30 µM	–	–
